≈ marks a conversion by molar mass, not a printed value. Where two headings read alike, the source gives them in different places.
Legend:
Format in all cases: cell-based
[1] = test system: E. Coli W 13351; test: Antibacterial activity (MIC, agar dilution per CLSI) against E. Coli W 13351; conditions: for MIC: Escherichia coli
Description: (§1) The biological activity of representative compounds according to the invention against various bacterial strains was investigated. In a typical study, overnight grown bacterial cultures were diluted appropriately and inoculated on the agar media containing doubling dilutions of the test compounds. Observation for growth or no growth was performed after 16-20 hours of incubation at 35±2° C. in ambient air. The overall procedure was performed as per Clinical and Laboratory Standards Institute (CLSI) recommendations (Clinical and Laboratory Standards Institute (CLSI), Performance Standards for Antimicrobial Susceptibility Testing, 20th Informational Supplement, M 100-S20, Volume 30, No. 1, 2010).
(§2) The activities are expressed as MICs (mcg/ml).

[2] = test system: P. aeruginosa Ps 32; test: Antibacterial activity (MIC, agar dilution per CLSI) against P. aeruginosa Ps 32; conditions: for MIC: Pseudomonas aeruginosa
Description: as §1, §2

[3] = test system: E. Coli M 50; test: Antibacterial activity (MIC, agar dilution per CLSI) against E. Coli M 50; conditions: for MIC: Escherichia coli
Description: as §1, §2

[4] = test system: E. Coli W 13353; test: Antibacterial activity (MIC, agar dilution per CLSI) against E. Coli W 13353; conditions: for MIC: Escherichia coli
Description: as §1, §2

[5] = test system: E. Coli W 13352; test: Antibacterial activity (MIC, agar dilution per CLSI) against E. Coli W 13352; conditions: for MIC: Escherichia coli
Description: as §1, §2

[6] = test system: E. Coli H 483; test: Antibacterial activity (MIC, agar dilution per CLSI) against E. Coli H 483; conditions: for MIC: Escherichia coli, read-out: MIC E. Coli H 483
Description: as §1, §2

[7] = test system: P. aeruginosa Ps 21; test: Antibacterial activity (MIC, agar dilution per CLSI) against P. aeruginosa Ps 21; conditions: for MIC: Pseudomonas aeruginosa
Description: as §1, §2

[8] = MDR Gram negative strain, Class A ESBL, 16-20 hours at 35±2° C., read-out: MIC E. Coli W 13351
[9] = PS32, MDR P. aeruginosa strain, agar dilution, 16-20 hours at 35±2° C., read-out: MIC Ps 32
[10] = MDR Gram negative strain, Class C ESBL, 16-20 hours at 35±2° C., read-out: MIC E. Coli M 50
[11] = MDR Gram negative strain, Class A ESBL, 16-20 hours at 35±2° C., read-out: MIC E. Coli W 13353
[12] = MDR Gram negative strain, Class A ESBL, 16-20 hours at 35±2° C., read-out: MIC E. Coli W 13352
[13] = MDR Gram negative strain, Class C ESBL, agar dilution, 16-20 hours at 35±2° C.
[14] = PS21, MDR P. aeruginosa strain, agar dilution, 16-20 hours at 35±2° C., read-out: MIC Ps 21
[15] = MDR Gram negative strain, Class A ESBL, 16-20 hours at 35±2° C.
[16] = MDR P. aeruginosa strain, agar dilution, 16-20 hours at 35±2° C.
[17] = MDR Gram negative strain, Class C ESBL, 16-20 hours at 35±2° C.

Row | SMILES | MIC [1, 8] [µg/mL] | MIC [2, 9] [µg/mL] | MIC [3, 10] [µg/mL] | MIC [4, 11] [µg/mL] | MIC [5, 12] [µg/mL] | MIC [6, 13] [µg/mL] | MIC [7, 14] [µg/mL] | MIC E. Coli W 13351 [1, 15] [µg/mL] | MIC E. Coli M 50 [3, 17] [µg/mL] | MIC E. Coli W 13353 [4, 15] [µg/mL] | MIC E. Coli W 13352 [5, 15] [µg/mL] | also measured
1 | C[C@H]1[C@H](NC(=O)/C(=N\OC(C)(C)C(=O)O)c2csc(N)n2)C(=O)N1S(=O)(=O)O [Aztreonam, reference compound] | > 32 | 8 (≈ 18.4 µM) | > 32 | > 32 | > 32 | > 32 | 8 (≈ 18.4 µM) | – | – | – | – | –
2 | CC(C)(O/N=C(\C(=O)N[C@@H]1C(=O)N2C(C(=O)[O-])=C(C[n+]3ccccc3)CS[C@H]12)c1csc(N)n1)C(=O)O [Ceftazidime, reference compound] | 32 (≈ 58.5 µM) | > 32 | > 32 | 32 (≈ 58.5 µM) | > 32 | > 32 | > 32 | – | – | – | – | –
3 | O=C(NOC[C@@H]1CCCN1)[C@@H]1CC[C@@H]2CN1C(=O)N2OS(=O)(=O)O [Example 1, (2S,5R)-7-oxo-N-[(2S)-pyrrolidin-2-ylmethyloxy]-6-(sulfooxy)-1,6-diazabicyclo[3.2.1]octane-2-carboxamide] | 1 (≈ 2.74 µM) | > 32 | 0.5 (≈ 1.37 µM) | 0.5 (≈ 1.37 µM) | 1 (≈ 2.74 µM) | > 32 | > 32 | – | – | – | – | –
4 | O=C(NOC[C@H]1CCCN1)[C@@H]1CC[C@@H]2CN1C(=O)N2OS(=O)(=O)O [Example 2, (2S,5R)-7-oxo-N-[(2R)-pyrrolidin-2-ylmethyloxy]-6-(sulfooxy)-1,6-diazabicyclo[3.2.1]octane-2-carboxamide] | 2 (≈ 5.49 µM) | > 32 | 1 (≈ 2.74 µM) | 1 (≈ 2.74 µM) | 2 (≈ 5.49 µM) | > 32 | > 32 | – | – | – | – | –
5 | O=C(NOC[C@H]1CCNC1)[C@@H]1CC[C@@H]2CN1C(=O)N2OS(=O)(=O)O [Example 3, (2S,5R)-7-oxo-N-[(3S)-pyrrolidin-3-ylmethyloxy]-6-(sulfooxy)-1,6-diazabicyclo[3.2.1]octane-2-carboxamide] | 16 (≈ 43.9 µM) | > 32 | 8 (≈ 22 µM) | 8 (≈ 22 µM) | 16 (≈ 43.9 µM) | > 32 | > 32 | – | – | – | – | –
6 | O=C(NOC[C@@H]1CCNC1)[C@@H]1CC[C@@H]2CN1C(=O)N2OS(=O)(=O)O [Example 4, (2S,5R)-7-oxo-N-[(3R)-pyrrolidin-3-ylmethyloxy]-6-(sulfooxy)-1,6-diazabicyclo[3.2.1]octane-2-carboxamide] | 8 (≈ 22 µM) | > 32 | 8 (≈ 22 µM) | 8 (≈ 22 µM) | 8 (≈ 22 µM) | > 32 | > 32 | – | – | – | – | –
7 | O=C(NOCC1CCCCN1)[C@@H]1CC[C@@H]2CN1C(=O)N2OS(=O)(=O)O (stereo partly drawn) [Example 17, (2S,5R)-7-oxo-N-((2R,S)piperidin-2-ylmethyloxy)-6-(sulfooxy)-1,6-diazabicyclo[3.2.1]octane-2-carboxamide] | – | – | – | – | – | – | – | 1 (≈ 2.64 µM) | 0.5 (≈ 1.32 µM) | 0.5 (≈ 1.32 µM) | 1 (≈ 2.64 µM) | MIC Ps 32 [2, 16]: >32 µg/mL; MIC E. Coli H 483 [6, 13]: >32 µg/mL; MIC Ps 21 [7, 16]: >32 µg/mL
8 | O=C(NOC[C@@H]1CCCCN1)[C@@H]1CC[C@@H]2CN1C(=O)N2OS(=O)(=O)O [Example 18, (2S,5R)-7-oxo-N-((2S)piperidin-2-ylmethyloxy)-6-(sulfooxy)-1,6-diazabicyclo[3.2.1]octane-2-carboxamide] | – | – | – | – | – | – | – | 1 (≈ 2.64 µM) | 1 (≈ 2.64 µM) | 0.5 (≈ 1.32 µM) | 1 (≈ 2.64 µM) | MIC ([2]; PS32, read-out: MIC Ps 32): > 32 µg/mL; MIC [6]: > 32 µg/mL; MIC ([7]; PS21, read-out: MIC Ps 21): > 32 µg/mL
9 | O=C(NOC[C@@H]1CCCCN1)[C@@H]1CC[C@@H]2CN1C(=O)N2OS(=O)(=O)O [Example 19, (2S,5R)-7-oxo-N-((2S)piperidin-2-ylmethyloxy)-6-(sulfooxy)-1,6-diazabicyclo[3.2.1]octane-2-carboxamide] | – | – | – | – | – | – | – | 8 (≈ 21.1 µM) | 8 (≈ 21.1 µM) | 4 (≈ 10.6 µM) | 16 (≈ 42.3 µM) | MIC Ps 32 [2, 16]: >32 µg/mL; MIC E. Coli H 483 [6, 13]: >32 µg/mL; MIC Ps 21 [7, 16]: >32 µg/mL
10 | O=C(NOC1CCNC1)[C@@H]1CC[C@@H]2CN1C(=O)N2OS(=O)(=O)O (stereo partly drawn) [Example 30, (2S,5R)-7-oxo-N-[(3R,S)-pyrrolidin-3-yloxy]-6-(sulfooxy)-1,6-diazabicyclo[3.2.1]octane-2-carboxamide] | – | – | – | – | – | – | – | 8 (≈ 22.8 µM) | 4 (≈ 11.4 µM) | 4 (≈ 11.4 µM) | 8 (≈ 22.8 µM) | MIC Ps 32 [2, 16]: >32 µg/mL; MIC E. Coli H 483 [6, 13]: >32 µg/mL; MIC Ps 21 [7, 16]: >32 µg/mL
11 | C[C@@H](O)[C@H]1C(=O)N2C(C(=O)O)=C(SCCN=CN)C[C@H]12 [Imipenem, reference compound] | 0.25 (≈ 0.835 µM) | > 32 | 0.5 (≈ 1.67 µM) | 0.25 (≈ 0.835 µM) | 0.25 (≈ 0.835 µM) | 1 (≈ 3.34 µM) | > 32 | – | – | – | – | –
12 | CN(C)c1cc(NC(=O)CNC(C)(C)C)c(O)c2c1C[C@H]1C[C@H]3[C@H](N(C)C)C(O)=C(C(N)=O)C(=O)[C@@]3(O)C(O)=C1C2=O [Tigecyclin, Tigecycline, reference compound] | – | – | – | – | – | – | – | – | – | – | – | MIC ([1]; read-out: MIC E. Coli W 13351, MDR Gram negative strain, Class A ESBL, 16-20 hours at 35±2° C.): 1 µg/mL (≈ 1.71 µM); MIC ([2]; PS32, read-out: MIC Ps 32): 16 µg/mL (≈ 27.3 µM); MIC ([3]; read-out: MIC E. Coli M 50, MDR Gram negative strain, Class C ESBL, 16-20 hours at 35±2° C.): 0.5 µg/mL (≈ 0.854 µM); MIC ([4]; read-out: MIC E. Coli W 13353, MDR Gram negative strain, Class A ESBL, 16-20 hours at 35±2° C.): 1 µg/mL (≈ 1.71 µM); MIC ([5]; read-out: MIC E. Coli W 13352, MDR Gram negative strain, Class A ESBL, 16-20 hours at 35±2° C.): 0.25 µg/mL (≈ 0.427 µM); MIC [6]: 0.5 µg/mL (≈ 0.854 µM); MIC ([7]; PS21, read-out: MIC Ps 21): 16 µg/mL (≈ 27.3 µM)

— US9732081B2, “1,6-diazabicyclo [3,2,1] octan-7-one derivatives and their use in the treatment of bacterial infections” (WOCKHARDT LIMITED, priority 2012, dated 2017)
